Laboratory results: patent US9045484B2, “Inhibitors of the BMP signaling pathway” (The Brigham and Women's Hospital, Inc., priority 2008, dated 2015)

Tests used:
hepcidin [1] = assay: Hepatic hepcidin expression in the steady state after 30 days treatment; assay type: in vivo, C57BL/6 mice; conditions: 3 mg/kg/d IP for 30 days; FIG. 16
Description: Ten-week-old male C57BL/6 mice fed a normal iron replete diet were treated chronically with compound 13 (3 mg/kg/d IP) or vehicle for 30 days, and hepatic hepcidin mRNA levels were measured by quantitative RT-PCR.

hepcidin [2] = assay: Pseudomonas aeruginosa-induced hepcidin expression in zebrafish embryos; assay type: in vivo; conditions: 6 μM; 5 h after PsA injection; RT-qPCR; FIG. 6
Excerpt: The following describes the development an in vivo model of inflammation-induced hepcidin expression that is amenable to facile genetic and pharmacological manipulation. The zebrafish is an attractive organism because it enables rapid knockdown of gene function via morpholino oligonucleotides and because it is highly amenable to pharmacological manipulation. Live Pseudomonas aeruginosa (PsA) were microinjected into the yolk of three-day-old zebrafish to induce a rapid and robust inflammatory response. It was determined that injection of bacteria induces robust expression of inflammatory markers. Embryos were injected with 5000 live PsA bacteria or phosphate PBS at 48 hpf and harvested 5 h later. TNFα, serum amyloid A (SAA), IL-1β, and IL-11α mRNA levels were measured by RT-qPCR (FIG. 5; *P<0.001 vs PBS, #P<0.002 vs. PBS). […] Next, it was examined whether the inflammatory response evoked by PsA in zebrafish is accompanied by induction of hepcidin.

hematopoietic stem cells = assay: Frequency of hematopoietic stem cells in bone marrow, multicolor flow cytometry; assay type: in vivo, C57BL/6 mice; conditions: 3 mg/kg/d IP for 30 days; versus vehicle-injected controls; FIG. 15
Description: Ten week-old male C57BL/6 mice were treated chronically with compound 13 (3 mg/kg/d IP) for 30 days, and bone marrow harvested and subjected to multicolor flow cytometry to quantify hematopoietic stem cell lineages based on cell surface marker expression.

hepcidin [3] = assay: Turpentine-induced hepatic hepcidin expression time course; assay type: in vivo, C57BL/6 mice; conditions: 3 mg/kg IP every 12 h; compared to vehicle; FIG. 13
[4] = Microsomal stability in pooled mouse liver microsomes; assay type: in vitro ADME; conditions: 0.5 mg/mL microsome protein, 1 mM NADPH
Description: Test compound (3 μM final concentration) along with 0.5 mg/mL microsome protein and 1 mM NADPH was incubated for 0, 5, 15, 30 and 60 min. Incubation of test compound and microsomes in the absence of NADPH served as a negative control. The samples were quenched with methanol and centrifuged for 20 min at 2500 rpm to precipitate proteins. Sample supernatants were analyzed (N=3) by LC/MS. The ln peak area ratio (compound peak area/internal standard peak area) was plotted against time and the slope of the line determined to give the elimination rate constant [k=(−1)(slope)]. The half life (t1/2 in minutes) and the in vitro intrinsic clearance (CLint in μL/min/mg protein) values were calculated according to the following equations, where V=incubation volume in μL/mg protein: […]

[5] = test system: constitutively-active mutant form of ALK2
[6] = test system: turpentine-challenged C57BL/6 mice; assay: Turpentine-induced hypoferrinemia, 24 h after one turpentine injection; assay type: in vivo
Description: Mice received a subcutaneous injection of turpentine, and 24 h later, serum was obtained for measurement of iron concentrations. Compound 13 (3 mg/kg) or vehicle was administered ip concurrently with turpentine and 12 hours later.

PDGFR-mediated signaling = assay: PDGF-induced AKT phosphorylation, cellular ELISA in PaSMCs; assay type: cell-based, murine
Description: To test the relative effects of dorsomorphin and structurally-related compounds upon PDGFR-mediated signaling, PDGF-induced AKT phosphorylation was measured by cellular ELISA via the detection of phospho-AKT in PaSMCs treated with compounds for 10 min. followed by PDGF for 30 min.

[7] = test system: turpentine-challenged C57BL/6 mice; conditions: 3 mg/kg ip every 12 h, weekly turpentine for 3 weeks
Description: To model the anemia of inflammation, C57BL/6 mice were studied in which chronic inflammation was induced by weekly subcutaneous injections of turpentine.
Mice received a subcutaneous injection of 100 μL turpentine weekly for 3 weeks. Compound 13 or vehicle (3 mg/kg) was administered ip beginning with the first turpentine injection and every 12 h thereafter. Vehicle treated mice without turpentine injection were studied as controls. One week after the final turpentine dose, blood was drawn for Hb levels, mean corpuscular volume (MCV), and absolute neutrophil counts.

KDR-mediated signaling = assay: Antagonism of KDR-mediated signaling (not shown); conditions: compound 13 versus dorsomorphin

## c1ccc2c(-c3cnn4cc(-c5ccc(N6CCNCC6)cc5)cnc34)ccnc2c1 [Compound 13, 4-[6-(4-piperazin-1-ylphenyl)pyrazolo[1,5-a]pyrimidin-3-yl]quinoline]
Hepcidin [1]
  basal hepatic hepcidin mRNA levels relative to vehicle-treated mice: 40%
Hepcidin [2]
  PsA-induced induction of hepcidin mRNA: almost completely blocked
Hematopoietic stem cells
  frequency of hematopoietic stem cells in the marrow: No significant difference
Hepcidin [3]
  hepatic hepcidin elevation after turpentine: effectively suppressed hepcidin elevation at 24-96 hours
[4]; read-out: half-life (t1/2) in mouse liver microsomes
  half-life at 3 μM: 1.37 h
[4]; read-out: intrinsic clearance (CLint) in mouse liver microsomes
  microsomal CLint at 3 μM: 16.9 ± 5.6 µL/min/mg
[5]; FOP mutant mice, 3 mg/kg ip twice daily, FIG. 14
  ectopic calcification and disability: prevented the ectopic calcification and disability
[5]; wild type mice, 3 mg/kg BID
  skeletal development: exhibited normal skeletal development
[6]; 3 mg/kg ip with turpentine and 12 hours later, FIG. 8
  turpentine-induced reduction in serum iron levels: prevented turpentine-induced reduction in serum iron levels
[6]; two doses 3 mg/kg IP every 12 hours, FIG. 9
  hepatic hepcidin mRNA levels after turpentine: prevented elevation of hepatic hepcidin mRNA levels
PDGFR-mediated signaling
  selectivity for BMP signaling versus PDGF signaling: improves upon the selectivity
PDGFR-mediated signaling; Mus musculus, PASMC, compounds 10 min, then PDGF 30 min, FIG. 2, read-out: functional IC50, PDGF-induced AKT phosphorylation
  IC50: ~2000 nM
[7]; FIG. 10
  hemoglobin (Hb) levels: prevented the decline in Hb levels and MCV
[7]; FIG. 11
  mean corpuscular volume (MCV): prevented the decline in Hb levels and MCV
[7]; FIG. 12
  absolute neutrophil counts: did not affect the increase in absolute neutrophil counts
KDR-mediated signaling
  antagonism of KDR-mediated signaling: five- to six-fold reduction
